Literature values, collected in patent US8148390B2, “Monocyclic anilide spirolactam CGRP receptor antagonists” (Merck, Sharp & Dohme, Corp., priority 2007, dated 2012).
Read-outs that look alike come from different tables or passages of the source. Ends that are not written are not given here.

Tests used:
[1] = system: middle meningeal artery; conditions: rats, electrical stimulation of the dura mater, prior administration (Williamson et al. 1997)
[2] = system: facial blood flow; conditions: rat, trigeminal ganglion stimulation (Escott et al. 1995)
[3] = system: acute attacks of migraine; conditions: clinical trials (Olesen et al. 2004)
[4] = system: headache induced by CGRP infusion; conditions: control group (Petersen et al. 2005)
[5] = system: facial blood flow; conditions: marmoset, electrical stimulation of the trigeminal ganglion (Doods et al. 2000)

Compound | effect on increase of middle meningeal artery diameter [1] | effect on increase of facial blood flow [2] | efficacy in treating acute attacks of migraine [3] | prevention of headache induced by CGRP infusion [4] | effect on increase of facial blood flow [5]
CGRP(8-37): a peptide CGRP antagonist; fragment of CGRP that lacks seven N-terminal amino acid residues (VTHRLAGLLSRSGGVVKNNFVPTNVGSKAF; ends and bridges not checked; UniProt P06881 90-119, looked up, fragment) | blocked | inhibited |  |  | 
NCCCC[C@H](NC(=O)[C@@H](Cc1cc(Br)c(O)c(Br)c1)NC(=O)N1CCC(N2Cc3ccccc3NC2=O)CC1)C(=O)N1CCN(c2ccncc2)CC1 [BIBN4096BS] |  |  | effective in treating acute attacks of migraine | able to prevent headache induced by CGRP infusion | could be blocked
